Earlier results as cited in patent publication US20120064152A1, “Analgesic and Anti-Inflammatory Compositions Comprising Domperidone and Methods of Using Same” (THE BOOTS COMPANY, priority 1996, published 2012).
Like-named read-outs stand apart in the source and are kept apart here.

Conditions: oral 100 mg sumatriptan

CNS(=O)(=O)Cc1ccc2[nH]cc(CCN(C)C)c2c1 [sumatriptan]
effectiveness compared with aspirin 900 mg plus 10 mg metoclopramide (initial attacks): as effective as aspirin 900 mg plus 10 mg metoclopramide | effectiveness compared with aspirin 900 mg plus 10 mg metoclopramide (subsequent attacks): more effective
